pIC50: −log10 of the molar value.
Tests used:
hBCRP = target: T1, hBCRP (Homo sapiens, UniProt Q9UNQ0); experiment: hBCRP-mediated efflux of lucifer yellow in hBCRP-MDCK cells; assay type: cell-based; settings: for efflux of BCRP-mediated lucifer yellow: concentration range 0.3 to 30 µM; for inhibitory effect on BCRP activity: hBCRP-MDCK cells, co-incubation 0.3 to 30 µM
T1 construct: host or cells: MDCK
T1 sequence (Q9UNQ0 1-655): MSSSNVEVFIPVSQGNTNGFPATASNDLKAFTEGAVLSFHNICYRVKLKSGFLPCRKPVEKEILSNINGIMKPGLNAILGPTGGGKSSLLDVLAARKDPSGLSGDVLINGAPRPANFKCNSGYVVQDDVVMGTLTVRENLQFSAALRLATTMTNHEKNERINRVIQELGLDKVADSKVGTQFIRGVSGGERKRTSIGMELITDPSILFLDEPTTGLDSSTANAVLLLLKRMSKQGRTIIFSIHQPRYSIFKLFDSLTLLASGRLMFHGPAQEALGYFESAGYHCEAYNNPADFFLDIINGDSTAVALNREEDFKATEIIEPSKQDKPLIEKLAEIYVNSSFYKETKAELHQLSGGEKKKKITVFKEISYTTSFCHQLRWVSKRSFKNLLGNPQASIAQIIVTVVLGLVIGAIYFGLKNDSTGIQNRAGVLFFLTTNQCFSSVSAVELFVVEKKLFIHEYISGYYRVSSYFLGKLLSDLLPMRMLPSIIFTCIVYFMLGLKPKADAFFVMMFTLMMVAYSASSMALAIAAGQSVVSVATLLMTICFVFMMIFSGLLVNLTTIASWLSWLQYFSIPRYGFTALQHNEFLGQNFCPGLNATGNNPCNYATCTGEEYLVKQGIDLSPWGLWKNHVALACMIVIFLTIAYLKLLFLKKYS
Description: Stably expressing cell lines of hOAT1-MDCK, hOAT3-MDCK, hOCT2-S2, hMDR1-MDCK, hBCRP-MDCK, and their mock cells were obtained from Japan Fuji Biomedical Co., Ltd. The cells were maintained in DMEM (Sigma) supplemented with 10% FCS, 1% non-essential amino acids (Sigma), and 2% L-glutamine. The medium for the Transwell® plates (Corning Costar, Cambridge, MA, United States) was supplemented with 0.1% gentamicin. Membrane filters were placed in a 12 mm well with 1.5 and 0.5 ml of culture medium in the basolateral and apical compartments, respectively. Cells were cultured at 37°C in an atmosphere of 5% CO2.
Briefly, the hOAT1-MDCK, hOAT3-MDCK, and hOCT2-S2 cells were trypsinized and suspended in the culture medium to provide a density of 1.5 × 10^5 cells/ml. […] After cultivation for 7 days, cells were washed twice and equilibrated for 30 min at 37°C with the pre-warmed HBSS buffer. […] The content of DMSO was below 1% and constant in all inhibition experiments. All experiments were performed in triplicate. The cell lysate and 3.0 ml of aquasol-2 scintillation fluid were put into a scintillation flask. […] IC50 values were determined by employing GraphPad Prism 9.

[1] = Tissue distribution-based herb-drug interaction study in rats (CIP i.v., PCE i.g.); assay type: in vivo, Sprague-Dawley rats
hMDR1 = target: T2, hMDR1 (Homo sapiens, UniProt P08183); experiment: hMDR1-mediated efflux of rhodamine 123 in hMDR1-MDCK cells; assay type: cell-based; settings: for efflux of MDR1-mediated rhodamine 123: concentration range 0.3 to 30 µM; for inhibitory effect on MDR1 activity: hMDR1-MDCK cells, co-incubation 0.3 to 30 µM
T2 construct: host or cells: MDCK

[2] = tested on: Staphylococcus aureus and Escherichia coli; design: method as in Fifere et al., 2022; settings: in vitro, especially that of levofloxacin; ref Fifere et al., 2022; cited from earlier work
MDR1 mRNA = MDR1 mRNA expression in Caco-2 cells (qRT-PCR); assay type: cell-based; settings: 48 h pretreatment, bosentan 20 μM, GA 50 μM, PCA 50 μM, PCE 100 mg/ml
Description: (§1) After the incubation period, cells were harvested from the Transwell inserts for RNA extraction. […] Real-time quantitative PCR (qRT-PCR) was performed on an ABI Prism 7900HT Sequence Detection System (Applied Biosystems, Foster City, CA, United States) for the analysis of MDR1 and BCRP genes. Primers of housekeeping gene β-actin was used as internal controls. […] The relative gene expression levels were determined using the comparative CT method (ΔΔCT method). The cut-off CT was set at 35 cycles for all analyses. An arbitrary classification system was assigned to the data, designating relative expression levels >2 as high mRNA expression, levels between 2 and 1 as moderate mRNA expression, levels between 1 and 0.1 as low mRNA expression and levels <0.1 as unexpressed.

hOCT2 = target: T3, hOCT2 (Homo sapiens, UniProt O15244); experiment: Inhibition of hOCT2-mediated uptake of 14C-TEA in hOCT2-S2 cells; assay type: cell-based; settings: 14C-TEA 5 µM
T3 construct: host or cells: S2
T3 sequence (O15244 1-555): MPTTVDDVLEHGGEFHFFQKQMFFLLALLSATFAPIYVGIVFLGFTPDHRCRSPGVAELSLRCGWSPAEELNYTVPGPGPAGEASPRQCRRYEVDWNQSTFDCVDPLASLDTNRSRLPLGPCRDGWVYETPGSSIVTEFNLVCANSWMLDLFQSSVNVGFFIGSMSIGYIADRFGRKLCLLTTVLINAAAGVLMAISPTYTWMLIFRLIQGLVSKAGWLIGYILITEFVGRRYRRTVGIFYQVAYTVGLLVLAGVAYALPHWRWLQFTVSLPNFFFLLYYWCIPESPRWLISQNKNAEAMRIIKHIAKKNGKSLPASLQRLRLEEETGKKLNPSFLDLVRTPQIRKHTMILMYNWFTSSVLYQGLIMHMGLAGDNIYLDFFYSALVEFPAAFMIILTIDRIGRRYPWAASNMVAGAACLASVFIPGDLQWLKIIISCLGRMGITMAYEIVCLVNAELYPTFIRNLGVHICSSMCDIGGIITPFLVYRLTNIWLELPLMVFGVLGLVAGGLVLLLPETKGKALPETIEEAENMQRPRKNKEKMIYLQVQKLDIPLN
Source text: Considering the relative exposure characteristics, GA and PCA were selected as PK-marker and Q-marker components of PCE in previous studies ([Ma et al., 2015]; [Ma et al., 2016]; [Li et al., 2021b]). In this study, we investigated the concentration-dependent inhibitions of GA and PCA on multiple transporters, including OAT1, OAT3, OCT2, MDR1, and BCRP. Stably expressing cell lines of hOAT1-MDCK, hOAT3-MDCK, hOCT2-S2, hMDR1-MDCK, hBCRP-MDCK, and their mock cells were obtained from Japan Fuji Biomedical Co., Ltd. The cells were maintained in DMEM (Sigma) supplemented with 10% FCS, 1% non-essential amino acids (Sigma), and 2% L-glutamine. The medium for the Transwell® plates (Corning Costar, Cambridge, MA, United States) was supplemented with 0.1% gentamicin. […]
Briefly, the hOAT1-MDCK, hOAT3-MDCK, and hOCT2-S2 cells were trypsinized and suspended in the culture medium to provide a density of 1.5 × 10^5 cells/ml. […] The radioactive intensity of ^14C-PAH, ^3H-ES, and ^14C-TEA was measured using a Tri-Carb 2910TR scintillator (PerkinElmer, United States). Fluorescence was measured at 485 nm (excitation) and 546 nm (emission) for rhodamine 123, and 425 nm (excitation) and 528 nm (emission) for lucifer yellow. IC50 values were determined by employing GraphPad Prism 9.

BCRP mRNA = BCRP mRNA expression in Caco-2 cells (qRT-PCR); assay type: cell-based; settings: 48 h pretreatment, bosentan 20 μM, GA 50 μM, PCA 50 μM, PCE 100 mg/ml
Description: as §1

T2 sequence (P08183 whole entry): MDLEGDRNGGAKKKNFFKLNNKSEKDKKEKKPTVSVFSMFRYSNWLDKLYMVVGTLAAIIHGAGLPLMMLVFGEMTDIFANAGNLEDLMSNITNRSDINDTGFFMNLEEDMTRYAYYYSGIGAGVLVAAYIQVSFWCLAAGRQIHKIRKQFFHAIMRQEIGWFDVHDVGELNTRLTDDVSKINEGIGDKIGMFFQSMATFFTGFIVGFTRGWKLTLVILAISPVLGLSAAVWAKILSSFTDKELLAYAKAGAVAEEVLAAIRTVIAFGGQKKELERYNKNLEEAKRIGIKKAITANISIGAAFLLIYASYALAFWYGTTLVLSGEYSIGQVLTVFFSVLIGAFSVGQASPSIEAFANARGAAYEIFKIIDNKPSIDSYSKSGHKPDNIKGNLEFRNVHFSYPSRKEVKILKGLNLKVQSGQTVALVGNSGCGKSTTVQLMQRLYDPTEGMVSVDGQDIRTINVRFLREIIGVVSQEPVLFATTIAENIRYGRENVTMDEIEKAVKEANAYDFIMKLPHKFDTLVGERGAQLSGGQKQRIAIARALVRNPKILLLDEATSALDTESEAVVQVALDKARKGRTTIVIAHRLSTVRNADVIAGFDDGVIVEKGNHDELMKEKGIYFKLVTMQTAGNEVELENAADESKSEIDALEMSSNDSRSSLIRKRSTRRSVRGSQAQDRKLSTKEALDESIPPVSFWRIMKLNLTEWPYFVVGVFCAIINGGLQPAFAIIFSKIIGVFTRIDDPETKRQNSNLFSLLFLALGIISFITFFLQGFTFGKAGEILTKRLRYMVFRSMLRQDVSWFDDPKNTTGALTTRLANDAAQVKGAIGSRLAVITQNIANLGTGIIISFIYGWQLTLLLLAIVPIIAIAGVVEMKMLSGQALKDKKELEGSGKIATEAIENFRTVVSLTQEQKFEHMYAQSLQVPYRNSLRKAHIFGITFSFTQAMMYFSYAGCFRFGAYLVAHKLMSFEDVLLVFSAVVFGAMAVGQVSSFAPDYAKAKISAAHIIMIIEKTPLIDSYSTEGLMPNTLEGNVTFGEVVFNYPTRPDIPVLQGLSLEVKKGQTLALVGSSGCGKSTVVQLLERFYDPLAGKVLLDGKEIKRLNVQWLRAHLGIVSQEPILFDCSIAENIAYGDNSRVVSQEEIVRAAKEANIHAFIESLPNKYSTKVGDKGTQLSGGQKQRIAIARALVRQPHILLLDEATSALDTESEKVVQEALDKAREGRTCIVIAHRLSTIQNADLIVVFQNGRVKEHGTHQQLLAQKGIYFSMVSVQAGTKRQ

SMILES	efflux of BCRP-mediated lucifer yellow (hBCRP)	inhibitory effect on BCRP activity (hBCRP)	order of C max in tissues ([1]; CIP + PCE group (PK-marker))	order of C max in tissues ([1]; PCE group)	order of AUC 0-t in tissues ([1]; intragastric PCE in the absence and presence of CIP)	change of C max by CIP ([1]; kidney and heart, p < 0.05)	efflux of MDR1-mediated rhodamine 123 (hMDR1)	inhibitory effect on MDR1 activity (hMDR1)	increase of the antibacterial activity [2]	increase of MDR1 (P-gp) mRNA expression (MDR1 mRNA)	order of both AUC 0-t and C max in tissues ([1]; CIP + PCE group)	order of both AUC 0-t and C max in tissues ([1]; PCE group)	change of K p by CIP ([1]; each tissue, p > 0.05)	change of AUC 0-t by CIP ([1]; kidney, p < 0.05)	change of C max by CIP ([1]; prostate, p < 0.05)	pIC50 (hOCT2)	increase of BCRP mRNA expression (BCRP mRNA)
O=C(O)c1cc(O)c(O)c(O)c1 [GA, Gallic acid]	concentration-dependent increase	no inhibitory effect	SVG > prostate > kidney > lung > plasma	SVG > prostate > kidney > plasma > testis	SVG > prostate > kidney > testis > plasma	decreased	concentration-dependent increase	no inhibitory effect									
O=C(O)c1ccc(O)c(O)c1 [PCA, protocatechuic acid]	concentration-dependent increase	no inhibitory effect					concentration-dependent increase	no inhibitory effect	up to 50%	3.56 fold	prostate > SVG > kidney > testis > plasma	SVG > kidney > prostate > testis > spleen	did not significantly alter	decreased	significantly increased	3.97	3.33 fold

From PMC9640990 (Frontiers in Pharmacology, 2022)
